In patent publication US11708391B2, “Rapaglutins, novel inhibitors of GLUT and use thereof” (The Johns Hopkins University, priority 2016, dated 2023):
Read-outs that look alike come from different tables or passages of the source.

Legend:
breast cancer HCC1954 = assay: alamar blue assay, HCC1954; assay type: cell-based, human
Description: (§1) Dose-dependent inhibition of cell proliferation by A18 and E11 was next evaluated in several other human cancer cell lines, including breast cancer HCC1954, pancreatic cancer PANC10.05, leukemia Jurkat T and colon cancer RKO (FIGS. 1b and 1c). […] (FIGS. 1 and 9; Table 3)

leukemia Jurkat T = assay: alamar blue assay, Jurkat T; assay type: cell-based, human
Description: as §1

HeLa = assay: alamar blue assay, HeLa; assay type: cell-based
Description: as §1

colon cancer RKO = assay: alamar blue assay, RKO; assay type: cell-based, human
Description: as §1

HEK293T = assay: alamar blue assay, HEK293T; assay type: cell-based
Description: as §1
(§2) Up to now, at least 14 different isoforms of GLUTs have been identified in human cells. It was then asked whether A18 and E11 are specific inhibitors of GLUT1. To answer this question, colon cancer DLD-1 wild type and GLUT1 gene knock out cell lines were chosen as a cell model (FIG. 4a). […] GLUTs that are most relevant to cancer are Glut1 and Glut3. To obtain additional evidence, Glut1 and Glut3 in HEK 293T cells were overexpressed and an alamar blue cell viability assay was performed again. […] (see FIGS. 4, 19, 20, 26; Table 4).

HEK 293T FLAG-Glut1 = assay: alamar blue assay, HEK 293T Glut1 overexpression cells; assay type: cell-based; conditions: for IC50: HEK 293T FLAG-Glut1
Description: (§3) FIGS. 20A-20C. E11 is a specific inhibitor of Glut1. (a) Glut1 and Glut3 protein levels of wild type, Glut1 and Glut3 overexpression cells analyzed by western blotting. (b)(c) Inhibition of cell proliferation in HEK293T, Glut1 and Glut3 overexpression cells by A18 and E11.
as §2

HEK 293T FLAG-Glut3 = assay: alamar blue assay, HEK 293T Glut3 overexpression cells; assay type: cell-based
Description: as §3, §2

glucose transporters = test system: T1, glucose transporters; assay: 3-O-methyl-D-[3H] glucose uptake in A549 cells; assay type: cell-based, human; conditions: read-out: IC50 uptake of 3H-labeled 3-O-methylglucose
T1 construct: IC50 uptake of 3H-labeled 3-O-methylglucose; other: A549 cells; compared with 3-O-methylglucose uptake; other: A549 cells treated with drugs for 1 min; other: A549 cells, glucose uptake assay; other
Method: FIGS. 2A-2D. Inhibition of Glucose Transport by A18 and E11. (a) Inhibition of 3-O-methyl¬D-[3H] glucose uptake in A549 cells by A18. (b) Inhibition of 3-O-methyl-D-[3H] glucose uptake in A549 cells by E11. (c) Inhibition of 2-deoxy-D-[3H] glucose uptake in A549 […] cells by A18. (d) Inhibition of 2-deoxy-D-[3H] glucose uptake in A549 cells by E11.
Direct action on glucose transporters was measured by monitoring uptake of 3H-labeled 3-O-methylglucose, which is transported by glucose transporters but not metabolized further, allowing the assessment of initial rate of glucose uptake. […] Initial uptake can also be assessed by measuring the uptake of 3H-labeled 2-deoxy-D-glucose, which gets into the cell through glucose transporters and is phosphorylated by hexokinase but cannot be metabolized further due to the lack of oxygen at the second position.

GLUT1 = target: T2, GLUT1 (Homo sapiens, UniProt P11166); assay: 3-O-methyl-D-[3H] glucose uptake in human red blood cells; assay type: cell-based; conditions: RBCs; read-out: IC50 3H-labeled 3-O-methylglucose uptake
T2 construct: endogenous in cells; host or cells: erythrocyte (RBC-derived) ghosts
T2 sequence (P11166 1-492): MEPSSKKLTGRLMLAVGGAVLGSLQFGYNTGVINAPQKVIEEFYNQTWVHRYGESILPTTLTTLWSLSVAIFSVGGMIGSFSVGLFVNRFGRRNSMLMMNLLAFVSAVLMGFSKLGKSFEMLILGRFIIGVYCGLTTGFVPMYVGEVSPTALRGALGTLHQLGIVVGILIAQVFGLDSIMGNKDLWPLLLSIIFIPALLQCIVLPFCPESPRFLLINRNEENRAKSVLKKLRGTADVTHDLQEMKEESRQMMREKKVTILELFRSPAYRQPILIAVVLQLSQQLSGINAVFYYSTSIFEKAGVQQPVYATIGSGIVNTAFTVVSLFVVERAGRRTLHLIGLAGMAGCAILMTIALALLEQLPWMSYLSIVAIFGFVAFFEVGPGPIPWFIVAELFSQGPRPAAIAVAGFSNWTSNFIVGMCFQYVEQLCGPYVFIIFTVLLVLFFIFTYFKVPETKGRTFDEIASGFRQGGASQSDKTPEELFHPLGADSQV
Description: FIGS. 3A-3D. Inhibition of Glucose Transport by A18 and E11. (a) Inhibition of 3-O-methyl-D-[3H] glucose uptake in human red blood cells by A18. (b) Inhibition of 3-O-methyl-D-[3H] glucose uptake in human red blood cells by E11. (c) Inhibition of 3-O-methyl-D-[3H] glucose uptake in erythrocyte ghosts by A18. (d) Inhibition of 3-O-methyl-D-[3H] glucose uptake in erythrocyte ghosts by E11.
A18 and E11 were previously shown to have a broad spectrum of anticancer activity. […] To test this hypothesis, red blood cells (RBCs) were applied as a cell model because RBCs express Glut1 as their sole glucose transporter and have been frequently used in studying glucose transport. […] To eliminate other possibilities, the glucose uptake assays were repeated in RBC-derived ghosts, in which all the intracellular proteins and enzymes were removed and only membrane-bound and membrane-associated proteins remained. […] (see FIGS. 2, 3 and 15-18)

DLD-1 wild type = assay: 2-deoxy-D-[3H] glucose uptake in DLD-1 wild type cells; assay type: cell-based
Description: FIGS. 4A-4B. E11 is a specific inhibitor of Glut1. (a) Glut1 protein levels of DLD-1 wild type and knock out cells analyzed by western blotting. (b) Inhibition of 2-deoxy-D-[3H] glucose uptake in DLD-1 wild type and knock out cells by E11 or A18.
as §2

AMPK = assay: Western blot, AMPK phosphorylation in HEK 293T; assay type: cell-based
Description: FIGS. 7A-7B. (a) A18 activates AMPK and inhibits S6K in HEK 293T cells. […] (b) A18 and E11 activate AMPK and inhibit S6K in HEK 293T cells.
Whether A18 and E11 treatment affect key cell growth signaling proteins was examined next. […] But it has no effects on the phosphorylation of ERK, AKT or JNK (FIG. 7). As previously reported, AMPK is likely to act as the key link between the ATP reduction and the subsequent cancer cell inhibition. (FIGS. 7 and 23-25). Based on the data reported here, the working model for A18 and E11 was proposed as outlined in FIG. 8. […] These led to upregulation of phosphorylation of AMPK and downregulation of phosphorylation of S6K. […] (FIG. 8)

## CC[C@@H](C)[C@H]1C(=O)NCC(=O)N(C)CC/C=C/C(=O)OCC(C)(C)C(=O)C(=O)N2CCCC[C@H]2C(=O)O[C@H](CCc2ccc(OC)c(OC)c2)c2cccc(c2)NC(=O)CCC(=O)N(C)[C@@H](CC(C)C)C(=O)N[C@H](Cc2ccccc2)C(=O)N1C [A18]
Breast cancer HCC1954; Homo sapiens
  IC50: 0.109 µM
Leukemia Jurkat T; Homo sapiens
  IC50: 0.132 µM
HeLa; Homo sapiens
  IC50: 0.281 µM
Colon cancer RKO; Homo sapiens
  IC50: 0.115 µM
HEK293T; Homo sapiens, HEK-293T, HEK293T, Table 3
  IC50: 0.11 µM
HEK293T; Homo sapiens, HEK-293T, HEK 293T, Table 4
  IC50: 0.069 µM
HEK 293T FLAG-Glut1; Homo sapiens
  IC50: 0.573 µM
HEK 293T FLAG-Glut3; Homo sapiens, HEK 293T FLAG-Glut3
  IC50: 2.35 µM
Glucose transporters
  IC50: 0.0187 µM
GLUT1
  IC50: 0.0342 µM
DLD-1 wild type
  inhibition of 2-deoxy-D-glucose uptake: strongly inhibited
AMPK
  phosphorylation of AMPK: inducing phosphorylation of AMPK

## Gly-^MSerBu-Nal-^MAla [E11]
Breast cancer HCC1954
  IC50: 0.159 µM
Leukemia Jurkat T
  IC50: 0.251 µM
HeLa
  IC50: 0.383 µM
Colon cancer RKO
  IC50: 0.714 µM
HEK293T; HEK293T, Table 3
  IC50: 0.154 µM
HEK293T; HEK 293T, Table 4
  IC50: 0.0848 µM
HEK 293T FLAG-Glut1; GLUT1 overexpression HEK 293T cells
  inhibition in alamar blue cell viability assay: kept partial inhibitory activity
HEK 293T FLAG-Glut1
  IC50: 0.658 µM
HEK 293T FLAG-Glut3; GLUT3 overexpression HEK 293T cells
  inhibition in alamar blue cell viability assay: didn't show any inhibition
HEK 293T FLAG-Glut3; HEK 293T FLAG-Glut3
  IC50 alamar blue assay: No activity
Glucose transporters
  IC50: 0.0382 µM
GLUT1
  IC50: 0.0742 µM
DLD-1 wild type
  inhibition of 2-deoxy-D-glucose uptake: kept inhibitory activity
AMPK
  phosphorylation of AMPK: inducing phosphorylation of AMPK
